In brackets after ≈: the same amount, converted by molar mass. Like-named read-outs stand apart in the source and are kept apart here. Residues, ends and D or L forms follow the SMILES beside them.
Assays:
BH1CC = experiment: microbe, parasite or virus in culture; type: cell-based, Staphylococcus aureus; conditions: 18 h
Method: (§1) Strains used in the study were isolates of methicillin-resistant Staphylococcus aureus (MRSA); USA300 LAC, BH1CC ([O’Neill et al., 2007]), methicillin-sensitive S. aureus (MSSA); SH1000 ([Horsburgh et al., 2002]) and BH48 ([O’Neill et al., 2007]); and Pseudomonas aeruginosa PAO1 (ATCC […]). Clinical isolates were obtained from a previous collection of isolates of infected wounds. Bacteria were grown aerobically at 37°C with shaking at 200 rpm in Brain Heart Infusion (BHI, Oxoid, Ireland). Selective media, Mannitol Salt Agar (SLS, Ireland) and MacConkey agar (SLS, Ireland), for re-isolation of bacterial strains from mixed species biofilms were used. Bolton Broth (Fannin, Ireland) supplemented with 50% bovine heparin plasma (TebuBio, UK), and 5% laked horse blood (Sigma-Aldrich, Ireland) was used to mimic in vivo conditions for static antibiofilm testing. For dynamic biofilm growth Simulated Wound Fluid (SWF) prepared as described previously with slight modification, 3% v/v fetal bovine serum in maximum recovery diluent (Merck, Ireland) was used ([Barbour et al., 2016]).
(§2) Minimum inhibitory concentration (MIC) was determined aerobically using the broth microdilution assay as recommended by the Clinical and Laboratory Standards Institute (CLSI) ([CLSI, 2018]). Briefly, 2-fold serial dilutions of the antimicrobial peptides of interest and conventional antibiotics were prepared in Mueller-Hinton broth (MHB) (Merck, Ireland) in a 96-well round bottom polypropylene plate (ThermoFisher, Ireland). Diluted bacterial suspensions in sterile PBS (Sigma, Ireland) were added to each well resulting in a final cell density of approximately 10^5 colony forming units (CFU)/mL. Microplates were incubated statically for 18 h at 37°C. In each assay, inoculated medium without antimicrobials and uninoculated medium served as growth and sterility controls, respectively. Conventional antibiotics, gentamicin (Merck, Ireland) and mupirocin (SLS, UK), were tested as comparator antimicrobials. The MIC value was defined as the lowest antimicrobial concentration showing no visible growth relative to positive (no antimicrobial agent) and negative controls (BHI alone). Experiments were conducted in triplicate, and independent replicates were performed three times to yield n = 3.

BH48 = experiment: microbe, parasite or virus in culture; type: cell-based, Staphylococcus aureus; conditions: 18 h
Method: as §1, §2

SH1000 = experiment: microbe, parasite or virus in culture; type: cell-based, Staphylococcus aureus
Method: as §1, §2

USA300 = experiment: microbe, parasite or virus in culture; type: cell-based, Staphylococcus aureus
Method: as §1, §2

PAO1 = experiment: microbe, parasite or virus in culture; type: cell-based, Pseudomonas aeruginosa
Method: as §1, §2

HaCaT = experiment: MTT cell viability; type: cell-based, human; conditions: 24 h, 37°C, 5% CO2, ethanol control
HUVEC = experiment: MTT cell viability; type: cell-based, human; conditions: 24 h, 37°C, 5% CO2, ethanol control
THP-1 = type: cell-based, human; conditions: THP-1; 24 h, 37°C, 5% CO2; ethanol control
Method: Sigma-Aldrich, Ireland). […] At 90% confluence, cells were centrifuged and diluted to a 1:5 ratio with complete RPMI. THP-1 cells were seeded in a 96 well plate at a density of 1 × 10^5 cells/mL with increasing concentrations of D-Bac8c^2,5 Leu. Cells were incubated for 24 h at 37°C with 5% CO2, 95% humidity. […] The absorbance was measured at 595 nm in a microplate spectrophotometer. Cell viability was calculated as a percentage of a control treated with PBS. Two technical replicates were performed each day on three independent days.

S. aureus strains = type: cell-based, Staphylococcus aureus; conditions: 2 MRSA and 2 MSSA strains, summed up in text
Method: as §1
Minimum inhibitory concentration (MIC) was determined aerobically using the broth microdilution assay as recommended by the Clinical and Laboratory Standards Institute (CLSI) ([CLSI, 2018]). […]

[1] = BH1CC (MRSA), MHB, about 10^5 CFU/mL, 37°C, n = 3
[2] = BH48 (MSSA), MHB, about 10^5 CFU/mL, 37°C, n = 3
[3] = SH1000 (MSSA), MHB, about 10^5 CFU/mL, 18 h, 37°C, n = 3
[4] = USA300 (MRSA), MHB, about 10^5 CFU/mL, 18 h, 37°C, n = 3
[5] = PAO1, MHB, about 10^5 CFU/mL, 18 h, 37°C, n = 3
[6] = Staphylococcus aureus, BH1CC (MRSA), MHB, about 10^5 CFU/mL, 37°C, n = 3, read-out: MIC
[7] = Staphylococcus aureus, BH48 (MSSA), MHB, about 10^5 CFU/mL, 37°C, n = 3, read-out: MIC
[8] = Staphylococcus aureus, SH1000 (MSSA), MHB, about 10^5 CFU/mL, 18 h, 37°C, n = 3, read-out: MIC
[9] = Staphylococcus aureus, USA300 (MRSA), MHB, about 10^5 CFU/mL, 18 h, 37°C, n = 3, read-out: MIC
[10] = Pseudomonas aeruginosa, PAO1, MHB, about 10^5 CFU/mL, 18 h, 37°C, n = 3, read-out: MIC

CC[C@H](C)[C@H](NC(=O)[C@H](CCCNC(=N)N)NC(=O)[C@@H](NC(=O)[C@H](C)NC(=O)[C@@H](NC(=O)[C@@H](NC(=O)[C@H](CC(C)C)NC(=O)[C@H](CCCNC(=N)N)NC(=O)[C@@H](N)C(C)C)[C@@H](C)CC)C(C)C)C(C)C)C(=O)N[C@@H](Cc1c[nH]c2ccccc12)C(=O)N[C@@H](CCCNC(=N)N)C(=O)N[C@@H](CCCNC(=N)N)C(N)=O [IDR-1018] (H-VRLIVAVRIWRR-NH2)
MIC (BH1CC; [1]): 128 µg/mL (≈ 83.3 µM)
MIC (BH48; [2]): 128 µg/mL (≈ 83.3 µM)
MIC (SH1000; [3]): 64 µg/mL (≈ 41.7 µM)
MIC (USA300; [4]): 64 µg/mL (≈ 41.7 µM)
MIC (PAO1; [5]): 64 µg/mL (≈ 41.7 µM)

C/C(=C\C(=O)OCCCCCCCCC(=O)O)C[C@@H]1OC[C@H](C[C@@H]2O[C@H]2[C@@H](C)[C@H](C)O)[C@@H](O)[C@H]1O [Mupirocin, mupirocin]
MIC (BH1CC; [6]): 2 µg/mL (≈ 3.99 µM)
MIC (BH48; [7]): 0.03 µg/mL (≈ 0.0599 µM)
MIC (SH1000; [8]): 0.03 µg/mL (≈ 0.0599 µM)
MIC (USA300; [9]): 0.06 µg/mL (≈ 0.12 µM)
MIC (PAO1; [10]): > 2050 µg/mL

CC(C)[C@H](NC(=O)[C@H](CCCCN)NC(=O)[C@H](CCCCN)NC(=O)[C@@H]1CCCN1C(=O)[C@H](CCCCN)NC(=O)[C@@H](NC(=O)[C@@H]1CCCN1C(=O)[C@H](CCCCN)NC(=O)[C@@H](NC(=O)[C@H](CCCCN)NC(=O)[C@H](CCCCN)NC(=O)[C@H](CO)NC(=O)[C@@H]1CCCN1)[C@@H](C)O)C(C)C)C(=O)N[C@@H](C)C(N)=O [DRGN-1] (H-PSKKTKPVKPKKVA-NH2)
MIC (BH1CC): >400 µg/mL
MIC (BH48): >400 µg/mL
MIC (SH1000; SH1000, 18 h): >400 µg/mL
MIC (USA300; USA300, 18 h): >400 µg/mL
MIC (PAO1; PAO1, 18 h): >400 µg/mL

CC[C@H](C)[C@H](NC(=O)[C@H](CCCNC(=N)N)NC(=O)[C@H](Cc1ccccc1)NC(=O)[C@H](CCCNC(=N)N)NC(=O)[C@@H](N)CCCCN)C(=O)N[C@@H](CCCNC(=N)N)C(=O)N[C@H](C(=O)N[C@@H](CCCNC(=N)N)C(=O)N[C@H](C(N)=O)C(C)C)C(C)C [1,037] (H-KRFRIRVRV-NH2)
MIC (BH1CC): 128 µg/mL (≈ 104 µM)
MIC (BH48): 128 µg/mL (≈ 104 µM)
MIC (SH1000; SH1000, 18 h): 128 µg/mL (≈ 104 µM)
MIC (USA300; USA300, 18 h): 128 µg/mL (≈ 104 µM)
MIC (PAO1; PAO1, 18 h): 64 µg/mL (≈ 52.1 µM)

CNC(C)C1CCC(N)C(OC2C(N)CC(N)C(OC3OCC(C)(O)C(NC)C3O)C2O)O1 (stereo not drawn) [Gentamicin, gentamicin]
MIC (BH1CC; [6]): 32 µg/mL (≈ 67 µM)
MIC (BH48; [7]): 0.25 µg/mL (≈ 0.523 µM)
MIC (SH1000; [8]): 0.25 µg/mL (≈ 0.523 µM)
MIC (USA300; [9]): 0.5 µg/mL (≈ 1.05 µM)
MIC (PAO1; [10]): 1 µg/mL (≈ 2.09 µM)

CC(=O)O[C@H]1C[C@@]2(C)[C@@H](C[C@@H](O)[C@H]3[C@@]4(C)CC[C@@H](O)[C@@H](C)[C@@H]4CC[C@@]32C)/C1=C(\CCC=C(C)C)C(=O)O [Fusidic acid]
MIC (BH1CC; [6]): 2 µg/mL (≈ 3.87 µM)
MIC (BH48; [7]): 4 µg/mL (≈ 7.74 µM)
MIC (SH1000; [8]): 0.06 µg/mL (≈ 0.116 µM)
MIC (USA300; [9]): 0.03 µg/mL (≈ 0.0581 µM)
MIC (PAO1; [10]): > 512 µg/mL

CCO [Ethanol, reference compound]
IC50 (50% cell viability), MTT (HaCaT): 1.2%
IC50 (50% cell viability), MTT (HUVEC): 0.4%
IC50 (50% cell viability), MTT (THP-1): 1%

CC[C@H](C)[C@H](NC(=O)CNC(=O)[C@H](CCCCN)NC(=O)[C@H](Cc1ccc(O)cc1)NC(=O)[C@H](CS)NC(=O)[C@@H](NC(=O)[C@H](CCCCN)NC(=O)[C@H](Cc1c[nH]c2ccccc12)NC(=O)[C@H](CS)NC(=O)[C@H](Cc1ccccc1)NC(=O)[C@@H](N)CCCNC(=N)N)C(C)C)C(=O)N[C@@H](CS)C(=O)N[C@@H](Cc1ccccc1)C(=O)N[C@@H](CCCCN)C(=O)N[C@@H](CCCCN)C(=O)N[C@@H](CS)C(=O)N[C@@H](CCCCN)C(N)=O [RP557] (H-RFCWKVCYKGICFKKCK-NH2; N-terminus assumed)
MIC (BH1CC; [1]): 16 µg/mL (≈ 7.48 µM)
MIC (BH48; [2]): 16 µg/mL (≈ 7.48 µM)
MIC (SH1000; [3]): 16 µg/mL (≈ 7.48 µM)
MIC (USA300; [4]): 16 µg/mL (≈ 7.48 µM)
MIC (PAO1; [5]): 8 µg/mL (≈ 3.74 µM)
MIC against S. aureus strains (S. aureus strains): 16 µg/mL (≈ 7.48 µM)
